Reference: patent US8859574B2 (IRM LLC, priority 2008, dated 2014)

Target: T1, IGF-1R Ba/F3 (Homo sapiens, UniProt P08069)
T1 construct: fused on or other part: TEL- (or BCR-) IGF-1R in Ba/F3: the kinase part holds the site
Assay: Ba/F3 Cell Viability Inhibition Assay (IGF-1R Ba/F3)
Type: cell-based, murine
Conditions: Tel-TK transformed Ba/F3 cells, 48 hours, Britelite luminescence
Outline: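 A 48 h compound treatment at 37 °C (3750 cells/well) was followed by Britelite luminescence to measure viability. Cells were Ba/F3 pro-B cells, IL-3-independent via TEL-fused IGF-1R kinase transduction. A logistic fit gave IC50 as 50% viability relative to DMSO control.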

T1 sequence (P08069 999-1274 limits assumed): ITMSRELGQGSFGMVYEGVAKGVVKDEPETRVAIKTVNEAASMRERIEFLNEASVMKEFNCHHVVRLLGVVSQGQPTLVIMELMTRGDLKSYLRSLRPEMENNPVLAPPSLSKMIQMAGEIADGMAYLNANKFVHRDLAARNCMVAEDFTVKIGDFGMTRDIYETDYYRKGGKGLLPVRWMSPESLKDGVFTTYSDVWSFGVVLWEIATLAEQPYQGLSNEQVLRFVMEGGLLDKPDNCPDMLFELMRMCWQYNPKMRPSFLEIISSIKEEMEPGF

| SMILES | IC50 |
| --- | --- |
| CCN1CCC(c2cc(C)c(Nc3ncc(C(F)(F)F)c(Nc4cc(C)[nH]n4)n3)cc2C)CC1 [Compound 221, N2-(4-(1-ethylpiperidin-4-yl)-2,5-dimethylphenyl)-N4-(5-methyl-1H-pyrazol-3-yl)-5-(trifluoromethyl)pyrimidine-2,4-diamine] | 34 nM |
| Cc1cc(Nc2nc(Nc3cc(C)c(C4CCN(CC(O)C(F)(F)F)CC4)cc3F)ncc2Cl)n[nH]1 (stereo not shown) [Compound 30, 3-(4-(4-(5-chloro-4-(5-methyl-1H-pyrazol-3-ylamino)pyrimidin-2-ylamino)-5-fluoro-2-methylphenyl)piperidin-1-yl)-1,1,1-trifluoropropan-2-ol] | 71 nM |
| CCN1CCC(c2cc(F)c(Nc3ncc(Cl)c(Nc4cc(C)[nH]n4)n3)cc2C)CC1 [Compound 232, 5-chloro-N^2-(4-(1-ethylpiperidin-4-yl)-2-fluoro-5-methylphenyl)-N^4-(5-methyl-1H-pyrazol-3-yl)pyrimidine-2,4-diamine] | 20 nM |
| Cc1cc(C2CCNCC2)c(C)cc1Nc1ncc(Cl)c(Nc2ccc[nH]c2=O)n1 [Compound 158, 3-(5-chloro-2-(2,5-dimethyl-4-(piperidin-4-yl)phenylamino)pyrimidin-4-ylamino)pyridin-2(1H)-one] | 62 nM |
| Cc1cc(Nc2nc(Nc3cc(C)c(C4CCN(CCO)CC4)cc3C)ncc2C(F)(F)F)n[nH]1 [Compound 222, 2-(4-(2,5-dimethyl-4-(4-(5-methyl-1H-pyrazol-3-ylamino)-5-(trifluoromethyl)pyrimidin-2-ylamino)phenyl)piperidin-1-yl)ethanol] | 38 nM |
| Cc1cc(Nc2nc(Nc3cc(C)c(C4CCN(CCC(N)=O)CC4)cc3F)ncc2Cl)n[nH]1 [Compound 248, 3-(4-(4-(5-chloro-4-(5-methyl-1H-pyrazol-3-ylamino)pyrimidin-2-ylamino)-5-fluoro-2-methylphenyl)piperidin-1-yl)propanamide] | 140 nM |
| Cc1cc(Nc2nc(Nc3cc(C)c(C4CCN(C(=O)N(C)C)CC4)cc3C)ncc2Cl)n[nH]1 [Compound 70, 4-(4-(5-chloro-4-(5-methyl-1H-pyrazol-3-ylamino)pyrimidin-2-ylamino)-2,5-dimethylphenyl)-N,N-dimethylpiperidine-1-carboxamide] | 6 nM |
| Cc1cc(Nc2nc(Nc3cc(C)c(C4CCN(C(=O)CN(C)C)CC4)cc3F)ncc2Cl)n[nH]1 [Compound 73, 1-(4-(4-(5-chloro-4-(5-methyl-1H-pyrazol-3-ylamino)pyrimidin-2-ylamino)-5-fluoro-2-methylphenyl)piperidin-1-yl)-2-(dimethylamino)ethanone] | 19 nM |
| Cc1cc(Nc2nc(Nc3cc(C(F)(F)F)c(N4CCN(C)CC4)cc3F)ncc2Cl)n[nH]1 [Compound 157, 5-chloro-N^2-(2-fluoro-4-(4-methylpiperazin-1-yl)-5-(trifluoromethyl)phenyl)-N^4-(5-methyl-1H-pyrazol-3-yl)pyrimidine-2,4-diamine] | 75 nM |
| Cc1cc(Nc2nc(Nc3cc(C)c(C4CCN(C5CN(S(C)(=O)=O)C5)CC4)cc3F)ncc2Cl)n[nH]1 [Compound 300, 5-chloro-N2-(2-fluoro-5-methyl-4-(1-(1-(methylsulfonyl)azetidin-3-yl)piperidin-4-yl)phenyl)-N4-(5-methyl-1H-pyrazol-3-yl)pyrimidine-2,4-diamine] | 32 nM |
| Cc1cc(Nc2nc(Nc3cc(C)c(C4CCCNC4)cc3C)ncc2Cl)n[nH]1 (stereo not shown) [Compound 15, 5-chloro-N2-(2,5-dimethyl-4-(piperidin-3-yl)phenyl)-N4-(5-methyl-1H-pyrazol-3-yl)pyrimidine-2,4-diamine] | 50 nM |
| Cc1cc(Nc2nc(Nc3cc(C)c(C4CCN(C5CCSCC5)CC4)cc3C)ncc2Cl)n[nH]1 [Compound 174, 5-chloro-N2-(2,5-dimethyl-4-(1-(tetrahydro-2H-thiopyran-4-yl)piperidin-4-yl)phenyl)-N4-(5-methyl-1H-pyrazol-3-yl)pyrimidine-2,4-diamine] | 8 nM |
| Cc1cc(Nc2nc(Nc3cc(C4CCN(C(C)C(N)=O)CC4)c(F)cc3C)ncc2Cl)n[nH]1 (stereo not shown) [Compound 48, 2-(4-(5-(5-chloro-4-(5-methyl-1H-pyrazol-3-ylamino)pyrimidin-2-ylamino)-2-fluoro-4-methylphenyl)piperidin-1-yl)propanamide] | 3680 nM |
| CCc1noc(CN2CCC(c3cc(C)c(Nc4ncc(Cl)c(Nc5cc(C)[nH]n5)n4)cc3C)CC2)n1 [Compound 303, 5-chloro-N2-(4-(1-((3-ethyl-1,2,4-oxadiazol-5-yl)methyl)piperidin-4-yl)-2,5-dimethylphenyl)-N4-(5-methyl-1H-pyrazol-3-yl)pyrimidine-2,4-diamine] | 6 nM |
| Cc1cc(Nc2nc(Nc3cc(C)c(C4CCN(C(=O)C5CN(C)C5)CC4)cc3C)ncc2Cl)n[nH]1 [Compound 120, (4-(4-(5-chloro-4-(5-methyl-1H-pyrazol-3-ylamino)pyrimidin-2-ylamino)-2,5-dimethylphenyl)piperidin-1-yl)(1-methylazetidin-3-yl)methanone] | 25 nM |
| Cc1cc(Nc2nc(Nc3cc(C)c(C4CCN(C)CC4)cc3F)ncc2Cl)n[nH]1 [Compound 1, 5-Chloro-N2-(2-fluoro-5-methyl-4-(1-methylpiperidin-4-yl)phenyl)-N4-(5-methyl-1H-pyrazol-3-yl)pyrimidine-2,4-diamine] | 11 nM |
| Cc1cc(Nc2nc(Nc3cc(C)c(C4CCN(Cc5noc(C(C)C)n5)CC4)cc3F)ncc2Cl)n[nH]1 [Compound 285, 5-chloro-N2-(2-fluoro-4-(1-((5-isopropyl-1,2,4-oxadiazol-3-yl)methyl)piperidin-4-yl)-5-methylphenyl)-N4-(5-methyl-1H-pyrazol-3-yl)pyrimidine-2,4-diamine] | 68 nM |
| Cc1cc(Nc2nc(Nc3cc(C)c(C4CCS(=O)(=O)C4)cc3C)ncc2Cl)n[nH]1 (stereo not shown) [Compound 154, 5-Chloro-N^2-[4-(1,1-dioxo-tetrahydro-1λ^6-thiophen-3-yl)-2,5-dimethyl-phenyl]-N^4-(5-methyl-1H-pyrazol-3-yl)-pyrimidine-2,4-diamine] | 12 nM |
| Cc1cc(Nc2nc(Nc3cc(C(F)(F)F)c(C4CCNCC4)cc3C)ncc2Cl)n[nH]1 [Compound 254, 5-chloro-N4-(5-methyl-1H-pyrazol-3-yl)-N2-(2-methyl-4-(piperidin-4-yl)-5-(trifluoromethyl)phenyl)pyrimidine-2,4-diamine] | 70 nM |
| Cc1cc(Nc2nc(Nc3cc(Cl)c(C4CCN(C(=O)CN(C)C)CC4)cc3Cl)ncc2Cl)n[nH]1 [Compound 77, 1-(4-(2,5-dichloro-4-(5-chloro-4-(5-methyl-1H-pyrazol-3-ylamino)pyrimidin-2-ylamino)phenyl)piperidin-1-yl)-2-(dimethylamino)ethanone] | 7 nM |
| CCOC(=O)N1CCC(c2cc(C)c(Nc3ncc(Cl)c(Nc4cc(C)[nH]n4)n3)cc2C)CC1 [Compound 162, ethyl 4-(4-(5-chloro-4-(5-methyl-1H-pyrazol-3-ylamino)pyrimidin-2-ylamino)-2,5-dimethylphenyl)piperidine-1-carboxylate] | 13 nM |
| Cc1cc(Nc2nc(Nc3cc(Cl)c(C4CCN(C(=O)CN5CCOCC5)CC4)cc3C)ncc2Cl)n[nH]1 [Compound 95, 1-(4-(2-chloro-4-(5-chloro-4-(5-methyl-1H-pyrazol-3-ylamino)pyrimidin-2-ylamino)-5-methylphenyl)piperidin-1-yl)-2-morpholinoethanone] | 6 nM |
